Data as given in patent US5116851A, “Pharmaceutical composition and method for treating cardiovascular diseases using substituted anilides and sulfonamides” (E. R. Squibb & Sons, Inc., priority 1990, dated 1992).

Key:
[1] = system: isolated canine cardiac Purkinje fibers; assay: Calcium-dependent slow response action potential amplitude (SAPA), standard microelectrode techniques; assay type: cell-based; conditions: Canis lupus familiaris, read-out: IC50 in reducing slow response action potential amplitude (SAPA)
Experimental: (§1) The calcium channel blocking and sodium entry blocking activities of compounds of the present invention were tested using standard microelectrode techniques in isolated canine cardiac Purkinje fibers as reported in J. L. Bergey et al., "Antiarrhythmic, hemodynamic, and cardiac electrophysiological evaluation of N-(2,6-dimethylphenyl)-N'-[3-(1-methylethylamino)propyl]-urea), (Wy 42,362)", Arzneim -Forsch, 33:1258, 1983). […] Depression of this parameter indicates depression of calcium entry into cardiac tissue. […] Significant depression of the upstroke velocity (vmax) indicates the blocking of sodium entry into cardiac tissue.

[2] = system: isolated canine cardiac Purkinje fibers; assay: Normal action potential parameters incl. upstroke velocity (Vmax; sodium entry), standard microelectrode techniques; assay type: cell-based; conditions: for Vmax (velocity of upstroke): in V/s (unit assumed); for IC50: Canis lupus familiaris, purkinje, sodium entry, read-out: IC50 in reducing maximum upstroke velocity (Vmax)
Experimental: as §1

[3] = system: Ischemic and Nonischemic Isolated Rat Heart; assay: Isolated perfused rat heart (Langendorff), global ischemia/reperfusion: cardiac function, flow and LDH release; parameters: species or system rat (male Sprague-Dawley); FLOW (coronary blood flow): unit not given here; conditions: 1 μM; for LDH (Lactate Dehydrogenase Release): Postischemia, cumulative over 30 min reperfusion, per g preischemia heart weight, lower = greater cardioprotection; for cardioprotection compared with diltiazem: post-ischemia LDH; for LDH/DP: ratio of cardioprotection to cardiodepression, lower = greater selectivity
Experimental: Lactate dehydrogenase is an enzyme released in the heart during an ischemic event and is an index of cardiac cell necrosis. In the Grover et al. model, this is measured during reperfusion and an agent which provides for lower release levels of LDH is considered to offer greater cardioprotection since lower LDH indicates a smaller infarct size. Cardiac function is determined using the double product (DP) of heart rate times the left ventricular developed pressure (LVDP) divided by 1,000.
The lower the value for DP before ischemia for a given agent, the more cardiodepressant it is considered to be.
Male Sprague-Dawley rats (450-550 g) were used in all experiments. The rats were anesthetized using 30 mg/kg sodium pentobarbital (i.p.). They were intubated and then treated with i.v. heparin (1000 U/kg). While being mechanically ventilated, their hearts were perfused in situ via retrograde cannulation of the aorta. The hearts were then excised and quickly moved to a Langendorff apparatus where they were perfused with Krebs-Henseleit bicarbonate buffer (112 mM NaCl, 5 mM KCl, 1.2 mMMg SO4, 1 mM KH2 PO4, 1.25 mM CaCl2, 11.5 mM dextrose, and 2 mM pyruvate) at a constant pressure (75 mm Hg). A water filled latex balloon attached to a metal cannula was then inserted into the left ventricle and connected to a Statham pressure transducer for measurement of left ventricular pressure. The hearts were allowed to equilibrate for 15 minutes at which time end diastolic pressure (EDP) was adjusted to 5 mm Hg and this was maintained for 5 minutes. Pre-ischemia or pre-drug function, heart rate and coronary blood flow (extracorporeal electromagnetic flow probe, Carolina Medical Electronics, King, N.C.) were then measured. Cardiac function was determined using the double product of heart rate (HR) times left ventricular developed pressure (LVDP) divided by 1,000.
All of these hearts were treated with their respective drugs or vehicle for ten minutes. At this time, post-drug cardiac function and flow were measured and then the hearts were made globally ischemic by shutting off the buffer perfusion. The ischemia was maintained for 25 minutes at which time reperfusion with nondrug treated buffer was instituted. Reperfusion was maintained for 30 minutes and at this time reperfusion function and flow were again determined.
At the end of the reperfusion period, the reperfusion buffer was sampled for cumulative LDH release as previously described. LDH release was expressed as U/g preischemia heart weight for the 30 minute collection period. LDH release is a sensitive index for loss of cell viability. Determination of the relationship between pre-ischemic, post-drug cardiac function was made by dividing the double product (HR ×LVDP/1000) by the cumulative LDH release.
All data were analyzed using a one way analysis of variance. Multiple comparisons were done using the Duncan procedure. All data are expressed as the mean±SE.
The pre-ischemia DP values are a measure of the cardiodepression of the drug on the healthy cardiac tissue.
The post-ischemia LDH values are a measure of the cardioprotection or anti-ischemic activity of the drug. In this case, lower values indicate greater anti-ischemic activity or greater cardioprotection.
The LDH/DP values are the ratio of cardioprotection to cardiodepression, the lower values indicating a greater selectivity for anti-ischemic activity.
The post-ischemia DP indicates cardiodepression after the ischemic episode and the lower DP values here are indicative of agents which still remained in the cardiac tissue for more than 30 minutes post ischemia. [drawing 16]

[4] = system: rabbit aorta; assay: Reduction of tone of rabbit aorta by high potassium (Vasc. Ca^++ Block); assay type: cell-based; conditions: Oryctolagus cuniculus; read-out: IC50 in reducing tone of rabbit aorta by high potassium (Vasc. Ca^++ Block)
Source text: |(SAPA), in reducing maximum upstroke velocity (Vmax) |and in reducing tone of rabbit aorta by high potassium |(Vasc. Ca^++ Block)

[5] = system: 24 hour post-infarction arrhythmias in dogs; assay: Antiarrhythmic activity in standard canine arrhythmia model (24 hour post-infarction arrhythmias); assay type: in vivo, dog; conditions: intravenous doses ranging from 6 to 15 mg/kg
Experimental: Antiarrhythmic activity was confirmed for the compound of Example 1 using a standard canine arrhythmia model as reported in J. L. Bergey et al., "Antiarrhythmic, hemodynamic, and cardiac electrophysiological evaluation of N-(2,6-dimethylphenyl)-N'-[3-(1-methylethylamino)propyl]urea), (Wy 42,362)", Arzneim -Forsch, 33:1258, 1983). In dogs suffering from 24 hour post-infarction arrhythmias the compound of Example 1 reversed arrhythmias in 5 out of 5 dogs tested following intravenous doses ranging from 6 to 15 mg/kg.

[6] = Postischemia (30 min.), occlusion 25 minutes, reperfusion 30 minutes
[7] = Preischemia (Post Drug), lower = more cardiodepressant

SMILES	IC50 [1] [nM]	APD 50 (action potential duration @ 50% repolarization) ([2]; 1 × 10^-5)	APD90 (action potential duration @ 90% repolarization) ([2]; 1 × 10^-5)	PP (peak potential) ([2]; 1 × 10^-5)	RP (resting potential) ([2]; 1 × 10^-5)	Vmax (velocity of upstroke) ([2]; 1 × 10^-5)	APD 50 (action potential duration @ 50% repolarization) ([2]; 1 × 10^-6)	APD90 (action potential duration @ 90% repolarization) ([2]; 1 × 10^-6)	PP (peak potential) ([2]; 1 × 10^-6)	RP (resting potential) ([2]; 1 × 10^-6)	Vmax (velocity of upstroke) ([2]; 1 × 10^-6)	APD 50 (action potential duration @ 50% repolarization) ([2]; 3 × 10^-6)	APD90 (action potential duration @ 90% repolarization) ([2]; 3 × 10^-6)	PP (peak potential) ([2]; 3 × 10^-6)	RP (resting potential) ([2]; 3 × 10^-6)	Vmax (velocity of upstroke) ([2]; 3 × 10^-6)	IC50 [2] [nM]	DP (Double Product, HR x LVDP / 1,000) [3, 6]	FLOW (coronary blood flow) [3, 6]	HR (Heart Rate) [3, 6] [beats/min]	other results
CN(C)CCCN(C(=O)Cc1ccccc1)c1ccccc1SCc1ccccc1.Cl [Example 3, N-[3-(Dimethylamino)propyl]-N-[2-[(phenylmethyl)thio]phenyl]benzeneacetamide, monohydrochloride]	1500	123 ± 2	271 ± 8	7 ± 1	84 ± 1	156 ± 11	181 ± 5	282 ± 2	32 ± 1	88 ± 1	401 ± 16	125 ± 3	251 ± 1	26 ± 1	88 ± 1	286 ± 9	3800	22	11	238	LVDP (Left Ventricular Developed Pressure) [3, 6]: 93 mmHg; LDH (Lactate Dehydrogenase Release) [3]: 5.2 U/g; FLOW (coronary blood flow) ([3]; Preischemia (Post Drug)): 18; HR (Heart Rate) ([3]; Preischemia (Post Drug)): 243 beats/min; LVDP (Left Ventricular Developed Pressure) ([3]; Preischemia (Post Drug)): 79 mmHg; DP (Double Product, HR x LVDP / 1,000) [3, 7]: 19; cardioprotection compared with diltiazem [3]: offered more cardioprotection than diltiazem; LDH/DP [3]: 0.30; IC50 [4]: 1700 nM
CN(C)CCCN(C(=O)Cc1ccccc1)c1ccccc1SCc1ccc(Cl)cc1 [Example 1, N-[2-[[(4-Chlorophenyl)methyl]thio]phenyl]-N-[3-(dimethylamino)propyl]benzeneacetamide]	> 10000	160 ± 3	320 ± 3	11 ± 2	89 ± 1	203 ± 19	219 ± 3	320 ± 3	35 ± 1	94 ± 1	443 ± 7	154 ± 3	305 ± 4	28 ± 1	89 ± 1	375 ± 11	6700	7	12	211	LVDP (Left Ventricular Developed Pressure) [3, 6]: 34 mmHg; LDH (Lactate Dehydrogenase Release) [3]: 12 U/g; FLOW (coronary blood flow) ([3]; Preischemia (Post Drug)): 25; HR (Heart Rate) ([3]; Preischemia (Post Drug)): 229 beats/min; LVDP (Left Ventricular Developed Pressure) ([3]; Preischemia (Post Drug)): 90 mmHg; DP (Double Product, HR x LVDP / 1,000) [3, 7]: 21; cardioprotection compared with diltiazem [3]: comparable to diltiazem in cardioprotection; LDH/DP [3]: 0.55; reversed arrhythmias (dogs tested) [5]: 5 out of 5; IC50 [4]: 1600 nM
